The nature of this data set: Thermal stability test (Gardner color of DMF solution before and after 150° C. for 3 hours). It counts as physicochemical. The following applies: for Color (Gardner color scale), after thermal processing for 3 hours / Color (Gardner color scale), initial: 2 g in 10 ml DMF; for Color (Gardner color scale), after thermal processing for 3 hours: 150° C. for 3 hours; for Color (Gardner color scale), initial: before thermal processing; for Change in color (delta color): before and after heating at 150° C. for 3 hours. The protocol: 2 g each of the reactive UV absorber I of the present invention, the comparative reactive UV absorber A, and the comparative reactive UV absorber B represented by the following formula B (an embodiment of reactive UV absorber with formula (IIIb) disclosed by U.S. Pat. No. 5,459,222) were respectively dissolved in 10 ml of dimethylformamide (DMF), and the obtained dimethylformamide solutions were subjected to thermal processing at 150° C. for 3 hours. The Gardner color scales of the solutions were measured by colorimeter (Lovibond PFXi-195).

Structures are written as SMILES.

On to `CC(C)(C)c1cc(CCC(=O)N(CCO)CCO)cc(-n2n3c4ccccc4n23)c1O` [Comparative reactive UV absorber A], for which the “Color (Gardner color scale), after thermal processing for 3 hours” value worked out at 9.1; the “Color (Gardner color scale), initial” value amounted to 5.4; the “Change in color (delta color)” value was found to be 3.7.

Regarding `Cc1cc(CN(CCO)CCO)c(O)c(-n2n3c4ccccc4n23)c1` [Comparative reactive UV absorber B], the “Color (Gardner color scale), after thermal processing for 3 hours” value stood at 7.2; the “Color (Gardner color scale), initial” value is 4.2; the “Change in color (delta color)” value stood at 3.0.

The values above are taken from patent US10717714B2, “Reactive ultraviolet absorber and application thereof” (CHITEC TECHNOLOGY CO., LTD., priority 2017, dated 2020).
